Here are results for two compounds from patent US12458641B2, “NK-3 receptor antagonists for therapeutic or cosmetic treatment of excess body fat” (Ogeda SA, priority 2015, dated 2025).

Several values for one entry are separate records, joined by “and”; a condition that tells them apart may be missing. Equal values may be shown once.

The conditions of experiment [1]: rats fed standard chow or high-fat diet (Li et al., 2014); cited from earlier work.
Experiment [2] concerns leptin. Briefly: Plasma leptin level in women (placebo-controlled, ELISA). The class given is in vivo, human. The settings on record: non-obese premenopausal women; 20, 60 and 180 mg once daily, all dose levels; p<0.05 paired t-test (FIG. 4). From the text: This was a randomized, double-blind, placebo-controlled study. All subjects provided written informed consent prior to screening for study eligibility. Healthy female volunteers aged 20-45 years with a body mass index of 19-30 kg/m^2 were included. Participants needed to be in good physical health including the presence of a regular ovulatory menstrual cycle and the discontinuation of all hormonal contraceptive methods at least 3 months prior to screening. Three panels of 8 non-obese female volunteers (median BMI of each panel: 22.3, 23.4, 25.2 kg/m^2) each were administered capsules of compound k-5 or matching placebo in a 6:2 ratio for 21 days. Subjects received the study medication in a once daily regimen after a light standardized breakfast. The participants in these panels were synchronized for their menstrual cycle; i.e. the initiation of dosing was always on Day3±2 of the menstrual cycle. The dose levels investigated were 20, 60 and 180 mg of compound k-5. Blood samples were collected on the day prior to dosing as well as on Day 21 (the final day of dosing) and plasma fractions were retained and stored frozen (−20° C.) until analysis. Leptin concentrations in these plasma samples were determined by ELISA assay (Human Leptin Kit: R&D Systems, Cat. N° DLP00) based upon linear regression analysis against a standard curve.
(ELISA stands for enzyme-linked immunosorbent assay.)

Experiment [3] can be described thus: Multiple ascending dose administration in healthy women: body weight. The class given is in vivo, human. The note with it: for Weight D 42 / Weight Screening: group mean; for Weight D 42: 21 days after last dose; for Weight Screening: before dosing (D-28 to D-2); for Pre vs Post Difference / Pre vs Post Difference (%): screening vs D42. On the procedure: Three Panels A, B, and C, each consisting of 6 healthy women, were randomized to receive different dose level of compound k-5. In those 3 panels, compound k-5 is administered for 21 consecutive days.
Subjects were residential from the day before first dosing (D-1) until Day 24 (=72 hours after the last dose intake on Day 21). Weekly non-residential visits were organized on Day 28, Day 35 (±1 day) and a follow-up visit on Day 42 (±2 days). Ascending multiple doses of compound k-5 were administered in a once-daily regimen for 21 consecutive days. […] Subjects received the trial medication in a q.d. regimen and after a light breakfast.
Subjects were recruited on the basis of their medical history and health status. Especially, subjects meeting all of the following criteria were eligible to participate in this study: • 1) Premenopausal females between 18 and 45 years of age inclusive. • 2) Healthy with no clinically significant abnormalities as determined by medical history, physical examination, blood chemistry assessments, hematologic assessments, coagulation and urinalysis, measurement of vital signs, and ECG. Isolated out-of-range values judged by the physician to be of no clinical significance were allowed. […] Weight Measurement
The weight was measured at screening, which took place between 28 and 2 days before start of dosing (D-28 to D-2), and at the end-of-study visit (D42, i.e. 21 days after cessation of study compound intake).
A two-tailed T-test for paired samples was used to explore the difference between the screening and post-study values for weight.

Experiment [4] is described as follows: 13-week oral dosing in cynomolgus monkeys: whole-body DEXA scan (lean mass, bone mineral density, bone mineral content, fat mass). The class given is in vivo, cynomolgus monkeys (Macaca fascicularis). Here is the method: (§1) Sexually-mature (age range of ˜4 years at pre-dose), purpose-bred cynomolgus monkeys (Macaca fascicularis) of Asian origin were used. Sexual maturity was proven by recording of at least two menstrual bleedings (with 20-to-50 days between menstruations) prior to entry into the study.
(§2) NHPs were divided into three treatment groups: vehicle control (N=6) and compound k-5 Dose Groups of 10 mg/kg (N=4) and 50 mg/kg (N=6), respectively. All NHPs were dosed once daily (morning) by oral gavage over the 13 week treatment period of the study. The dose vehicle was 0.5% methylcellulose (Methocel® from Colorcon) in water.
All NHPs were subjected to a body weight measurement and DEXA scan (Dual-energy X-ray absorptiometry, Hologic Dexa QDR® 4000) in the pre-dose phase and in the final week (week-13) of the dosing phase. The measurements were made under ketamine anesthesia with dorbene and antisedan.
The whole body was scanned by DEXA for measurement of lean mass, bone mineral density, bone mineral content and fat mass.

The nature of experiment [5]: Body weight and BMI in healthy women with normal corpulence. The format is in vivo, human. The note with it: 60 mg for 21 consecutive days, individual subjects. On the procedure:
Healthy women with normal corpulence, i.e. having a BMI ranging from 18.5 to 25 kg/m^2, received 60 mg of compound k-5 for 21 consecutive days.
(§3) The weight was measured at screening which took place between 28 and 2 days before start of dosing (D-28 to D-2), as well as on the follow-up visit planned on D42 (21 days after cessation of study compound intake).

A short description of experiment [6]: Body weight and BMI in overweight women. The format is in vivo, human. The settings on record: 180 mg for 21 consecutive days, individual subjects. Here is the method:
Overweight women, i.e. having a BMI ranging from 25 to 30 kg/m^2, received 180 mg of compound k-5 for 21 consecutive days.
as §3

For experiment [7], the system named is leptin. Briefly: 13-week oral dosing in cynomolgus monkeys: serum leptin by ELISA. The class given is in vivo, cynomolgus monkeys (Macaca fascicularis). On the procedure:
as §2
All NHPs were subjected to leptin levels measurements. Blood samples were collected at 08 h00 in the morning from overnight-fasted animals on Day-2 prior to dosing (‘pre-dose’), 24 h after the initial dosing, on day 52 of dosing and on day 86 of dosing. Serum samples were derived from these blood samples and stored frozen (−20° C.) until analysis. Leptin concentrations in these serum samples were determined by ELISA assay (Monkey Kit: MyBiosource Cat. N° MBS705354) based upon linear regression analysis against a standard curve.

Experiment [8] has as its system leptin. Briefly: Plasma leptin level in female rats over the estrous cycle (ELISA, AUC). The note with it: 10 mg/kg oral BID, p<0.05 paired t-test (FIG. 5). The format is in vivo.
Method: Daily plasma samples were collected each morning from sexually-mature female rats and analyzed for peak estrogen levels (coincident with proestrus) in order to define the timing of the estrous cycle for individual rats. Next, rats were dosed orally BID (i.e. twice a day) with vehicle (0.5% methylcellulose) over a 4-day ‘baseline’ estrous cycle. Plasma samples were collected daily, each morning, and stored frozen prior to analysis for leptin. […] Plasma samples were collected daily, each morning, and stored frozen prior to analysis for leptin. In a single experiment, plasma samples collected daily during both the ‘baseline’ and ‘treatment’ cycles were analyzed in a common experiment by ELISA assay based upon linear regression analysis against a standard curve. Leptin levels over the 4-day estrous cycle were calculated for individual rats by determination of AUC (area-under-the-curve) using credited data analysis software (GraphPad Prism).
Experiment [9] in a line: 13-week once-daily oral dosing in cynomolgus monkeys: body weight. The class given is in vivo, cynomolgus monkeys (Macaca fascicularis). The settings on record: female monkeys, 13 weeks, 50 mg/kg (FIG. 3), vehicle group gained about 12%.
From the text: The cynomolgus monkey was selected as a relevant species because of the similarity of nonhuman primates (NHP) to humans. The route of administration is oral consistent with the intended route in humans.
as §1
NHPs were maintained on a standard lab diet of twice-daily offerings of commercial pellets for primates supplemented with fresh fruit and bread. Dietary and environmental enrichment were also provided through the study duration. Animals were housed in a climate (19-25° C.) and humidity (40-70%) controlled environment with artificial lighting controlled automatically to give a cycle of 12 hours light and 12 hours dark.
NHPs were divided into three treatment groups: vehicle control (N=6) and compound k-5 Dose Groups of 10 mg/kg (N=4) and 50 mg/kg (N=6), respectively. All NHPs were dosed once daily (morning) by oral gavage over the 13 week treatment period of the study. The dose vehicle was 0.5% methylcellulose (Methocel® from Colorcon) in water. […]

On to `CC[C@H](NC(=O)c1c(C)c(-c2ccccc2)nc2ccccc12)c1ccccc1` [SB222200, 3-Methyl-2-phenyl-N-[(1S)-1-phenylpropyl]-4-quinolinecarboxamide], for which, in experiment [1], the effect on weight entry is “no effect on weight was observed”.

Consider `Cc1nsc(-c2nnc3n2CCN(C(=O)c2ccc(F)cc2)[C@@H]3C)n1` [k-5, (R)-(4-fluorophenyl)(8-methyl-3-(3-methyl-1,2,4-thiadiazol-5-yl)-5,6-dihydro-[1,2,4]triazolo[4,3-a]pyrazin-7(8H)-yl)methanone], for which the “leptin levels following 21 days of treatment relative to pre-dose levels” value in the experiment with leptin [2] is “increases serum leptin levels”. Besides, the “Weight D 42” value was 58.0 kg in experiment [3] (20 mg once daily for 21 days); 71.9 kg in [3] (60 mg once daily for 21 days); 66.9 kg in experiment [3] (180 mg once daily for 21 days); 64.2 kg and 61 kg and 67.8 kg in [5] (women BMI 18.5 to 25 kg/m^2, D42); 65.2 kg and 67 kg and 84 kg in [6] (overweight women, D42). Also, the “Weight Screening” value in experiment [3] (20 mg once daily for 21 days) was 58.2 kg; in experiment [3] (60 mg once daily for 21 days), 73.3 kg; in experiment [3] (180 mg once daily for 21 days), 69.0 kg; in experiment [5] (women BMI 18.5 to 25 kg/m^2, before dosing), 66.4 kg and 63 kg and 68.3 kg; in experiment [6] (overweight women BMI 25 to 30 kg/m^2, before dosing), 68 kg and 71.2 kg and 87 kg. The “Pre vs Post Difference” value was -0.13 kg in experiment [3] (20 mg once daily for 21 days), -1.38 kg in experiment [3] (60 mg once daily for 21 days) and -2.10 kg in [3] (180 mg once daily for 21 days). Also, the “Pre vs Post Difference (%)” value was −0.23% in experiment [3] (20 mg once daily for 21 days), −1.92% in [3] (60 mg once daily for 21 days) and −3.14% in [3] (180 mg once daily for 21 days). The “weight lowering with increasing doses” value in experiment [3] (20, 60, 180 mg once daily for 21 days, healthy women) is “dose-dependent trend exists towards weight lowering”. The “% fat/total mass, treated versus vehicle-treated group” value in experiment [4] (50 mg/kg, week 13, N=6/group) is reported as “statistically-significant difference”. Also, the “change in % fat/total mass over the 13-week treatment period (DEXA)” value in experiment [4] (10 and 50 mg/kg dose groups, pre-dose vs week 13, increased in the vehicle group (FIG. 1)) is on record as “no significant change”. In addition, the “BMI D 42” value was 21.45 and 22.95 and 21.39 in experiment [5] (D42); 26.79 and 26.17 and 26.21 in experiment [6] (D42). For the same compound, the BMI screening in experiment [5] (before dosing) is 22.18 and 23.71 and 21.55; in [6] (before dosing), 27.94 and 27.81 and 27.15. Further, the “Difference” value in experiment [5] (screening vs D42) is -2.2 kg and -2 kg and -0.5 kg; in [6] (screening vs D42), -2.8 kg and -4.2 kg and -3 kg. The “Difference (%)” value in experiment [5] (screening vs D42) is −3.43% and −3.28% and −0.74%; in experiment [6] (screening vs D42), −4.29% and −6.27% and −3.57%. Further, the “serum leptin levels 24-hours after initial dosing” value in the experiment with leptin [7] (50 mg/kg oral (FIG. 2), relative to pre-dose and to time-matched vehicle group) is on record as “significantly increases”. Also, in the experiment with leptin [7] (50 mg/kg oral once daily, up to day 86 (FIG. 2)), the “serum leptin levels over the duration of dosing relative to vehicle-treated group” value is given as “persistently higher”. The “plasma leptin levels over the 4-day estrous cycle (AUC) versus baseline cycle” value with leptin [8] is recorded as “increases plasma leptin levels”. In addition, the “change in mean weight over the course of the dosing phase” value in [9] is “no significant change”.
